Laboratory results from PMC117120 (BMC Biochemistry, 2002).
Changes are numbered by the printed parent chain. Where two headings read alike, the source gives them in different places.

Key:
wt 5-HT3ASR = molecular target: T1, wt 5-HT3ASR (Mus musculus, UniProt P23979); conditions: for response amplitude: 4 s, representative trace
T1 sequence (P23979 24-483 isoform P23979-2 limits assumed): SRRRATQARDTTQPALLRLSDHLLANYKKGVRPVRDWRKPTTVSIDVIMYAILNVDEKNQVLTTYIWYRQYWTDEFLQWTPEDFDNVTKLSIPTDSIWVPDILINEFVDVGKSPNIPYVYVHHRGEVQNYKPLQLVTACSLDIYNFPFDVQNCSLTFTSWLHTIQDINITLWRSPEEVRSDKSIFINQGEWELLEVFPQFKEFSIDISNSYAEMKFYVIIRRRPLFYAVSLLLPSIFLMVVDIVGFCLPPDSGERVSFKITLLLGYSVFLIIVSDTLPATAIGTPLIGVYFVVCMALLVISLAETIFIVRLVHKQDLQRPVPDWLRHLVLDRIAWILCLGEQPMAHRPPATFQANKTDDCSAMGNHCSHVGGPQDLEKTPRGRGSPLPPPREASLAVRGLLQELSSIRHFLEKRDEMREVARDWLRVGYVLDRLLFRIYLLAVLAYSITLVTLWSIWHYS

Y140A mutant 5-HT3ASR = molecular target: T2, Y140A mutant 5-HT3ASR (Mus musculus, UniProt P23979, Y141A); assay: Whole cell patch clamp, cells transfected with Y140A cDNA; type: cell-based; conditions: 5-HT concentrations of up to 1 mM
T2 sequence (P23979 24-483 isoform P23979-2 Y141A): T1 sequence (P23979 24-483 isoform P23979-2 limits assumed) with Y118A

Y142A mutant 5-HT3ASR = molecular target: T3, Y142A mutant 5-HT3ASR (Mus musculus, UniProt P23979, Y143A); assay: Whole cell patch clamp, cells transfected with Y142A cDNA; type: cell-based; conditions: 5-HT concentrations of up to 1 mM
T3 sequence (P23979 24-483 isoform P23979-2 Y143A): T1 sequence (P23979 24-483 isoform P23979-2 limits assumed) with Y120A

Y152A mutant 5-HT3ASR = molecular target: T4, Y152A mutant 5-HT3ASR (Mus musculus, UniProt P23979, Y153A); assay: Whole cell patch clamp, tsA201 cells transfected with Y152A cDNA; type: cell-based; conditions: for response amplitude: 8 s, representative trace
T4 sequence (P23979 24-483 isoform P23979-2 Y153A): T1 sequence (P23979 24-483 isoform P23979-2 limits assumed) with Y130A

NCCc1c[nH]c2ccc(O)cc12 [5-HT, serotonin]
desensitization (wt 5-HT3ASR): desensitized rapidly | time to peak response (wt 5-HT3ASR): less than 80 ms | response amplitude (wt 5-HT3ASR; 0.3 μM 5-HT): 0.03 nA | response amplitude (wt 5-HT3ASR; 1.0 μM 5-HT): 0.96 nA | response amplitude (wt 5-HT3ASR; 3.0 μM 5-HT): 2.5 nA | response amplitude (wt 5-HT3ASR; 30.0 μM 5-HT): 4.4 nA | response amplitude (wt 5-HT3ASR; 100.0 μM 5-HT): 3.9 nA | whole cell response to 5-HT (Y140A mutant 5-HT3ASR): no responses | whole cell response to 5-HT (Y142A mutant 5-HT3ASR): no responses | time for response to plateau (Y152A mutant 5-HT3ASR): several seconds | response amplitude (Y152A mutant 5-HT3ASR; 3.0 μM 5-HT): 0.10 nA | response amplitude (Y152A mutant 5-HT3ASR; 100 μM 5-HT): 0.14 nA | response amplitude (Y152A mutant 5-HT3ASR; 300.0 μM 5-HT): 0.57 nA | response amplitude (Y152A mutant 5-HT3ASR; 1.0 mM 5-HT): 1.0 nA | desensitization (Y152A mutant 5-HT3ASR; during the 8 s perfusion time): no desensitization
